Measurements reported in article PMC12677843, “Multidisciplinary Preclinical Investigations on Ferrocenyl, Ruthenocenyl, and Benzyl Derivatives of Niridazole as New Drug Candidates against Schistosomiasis” (Chemmedchem, 2025).
Where two headings read alike, the source gives them in different places.

Legend:
juvenile S. mansoni = experiment: In vitro drug sensitivity assay on juvenile S. mansoni; type: cell-based, Schistosoma mansoni; settings: 72 h incubation, 37 °C, 5% CO2
Experimental: Juvenile worms were gained through cultivation of NTS as previously described. 10 In short, NTS were obtained as described above, then directly after the mechanical transformation process the newly transformed schistosomula were placed in a special culturing medium. The culture medium consists of Panserin 401, w: L-Glutamine, serum free all-round medium (Pan Biotech, Aidenbach, Germany) supplemented with 20 % human serum and 500 U/mL penicillin, […] streptomycin (LuBioScience, Switzerland). 96-well transparent polystyrene flat bottom plates were used for the in vitro growth procedure, with 40 to 60 NTS per well in 100 µL culture medium. The bordering wells of the plate were filled solely with medium to counteract evaporation and to keep the humidity as steady as possible. The plates were incubated for 21 days at 5 % CO2 and at 37 °C, with regular medium changes every 3 to 4 days. After the 21 days culturing period, the schistosomulae developed into juveniles. For the drug sensitivity assay, juvenile worms were incubated over 72 h (5 % CO 2 and 37 °C) with the test compound in the same medium, as used for the culturing process. In a 96-well plate, 250 µL medium containing the test compound and six juvenile worms, ideally of both sexes were placed in each well. All compounds were tested twice independently at 50, 10, 5 and 1 µM in duplicates. The viability of the worms was evaluated microscopically after 24, 48 and 72 h of continuous drug exposure using the same phenotypic screening method as described before. […]

adult S. mansoni = experiment: In vitro drug sensitivity assay on adult S. mansoni (microscopic viability scoring); type: cell-based, Schistosoma mansoni; settings: for mean drug effect at 10 µM on adult S. mansoni, 24 h / mean drug effect at 10 µM on adult S. mansoni, 48 h / mean drug effect at 10 µM on adult S. mansoni, 72 h: in percentage of DMSO control; for EC50: 37 °C, 5% CO2; for Fold activity of niridazole: potency on adult S. mansoni relative to niridazole, EC50 at 72 h; for drug effect at 50 µM on adult S. mansoni: 72 h incubation, normalized to DMSO control, active if ≥60%
Experimental: Figure 3 In vitro activity at 50 µM of the 12 compounds on adult S. mansoni. Adult schistosomes were incubated in culture media for 72 h at 37 °C and 5% CO2 with either compound (50 µM) or a DMSO (0.5%) control. The viability of the worms was microscopically evaluated and scored (0—3, in 0.5 steps) every 24 h. Results are from two independent experiments, each performed in duplicate. Drug activities were normalized to the DMSO controls. Data represent mean ± SD in percentage of DMSO control. […]
In vitro evaluation on adult S. mansoni
After a week for acclimatization to the new environment with controlled conditions (temperature: 22 °C ± 2 °C, humidity: 50 % ± 10 %, 12:12 h light/dark photocycle), four-week-old female NMRI mice (Charles River, Sulzfeld, Germany) were subcutaneously infected with approximately 100 cercariae to establish the S. mansoni infection. In the S. mansoni infected mice the worms were allowed to develop for 7 weeks into the adult stage, before they were extracted from the mesenteric veins of the euthanized mice. The adult worms were placed into RPMI 1640 (Gibco, Waltham MA, USA) medium supplemented with 1 % penicillin/streptomycin mixture and 5 % iFCS at 37 °C and 5 % CO 2. The drug sensitivity assay was set up in a 24-well plate with two wells containing each two pairs of S. mansoni worms per compound and concentration.
The final volume per well was 2 mL, containing the culture medium and the corresponding amount of drug dissolved in DMSO. The maximum concentration tested was 50 µM, corresponding to 0.5 % DMSO, to which all the other wells were adapted […]
to, so that all test concentrations contained always the same amount of DMSO.
Additionally, 2 wells with negative controls containing only DMSO and the culture medium were included. After an incubation period of 72 h at 37 °C and 5 % CO 2, the worms were microscopically evaluated. The drug effect was determined 24, 48 and 72 h post-exposure based on the phenotype of the adult worms, using a viability scale ranging from three referring to viable, motile worms with no change in their tegument to zero standing for the death of the worms.
All described in vitro studies with mice involved, were conducted at the Swiss Tropical and Public Health Institute, first in Basel, later in Allschwil, and had the approval by the corresponding veterinary authorities of the Canton Basel-Stadt (permit no. 2070)

[1] = test system: S. mansoni newly transformed schistosomula (NTS); experiment: In vitro evaluation on newly transformed schistosomula (NTS); type: cell-based, Schistosoma mansoni; settings: for EC50: 72 h incubation, 37 °C, 5% CO2; for drug effect at 50 µM on S. mansoni NTS: highest tested concentration 50 µM
Experimental: 2. Experimental section for biological experiments
Stock solutions of the test compounds
Stock solution of a concentration of 10 mM in pure DMSO (Sigma-Aldrich, Switzerland) were prepared of the 12 compounds, these stock solutions were used for all in vitro evaluations from activity tests in S. mansoni to the cytotoxic determinations in HUH7 hepatocyte-derived carcinoma cells, and in SH-SY5Y neuroblastoma cells.
The solutions were thoroughly vortexed and sonicated to enable a good dissolution of the compounds and homogenous stock solutions.
2.1 In vitro evaluations in S. mansoni
In vitro evaluation on newly transformed schistosomula (NTS)
To obtain newly transformed schistosomula (NTS) the lifecycle of S. mansoni (strain originates from West Africa, Liberia) is maintained at the Swiss Tropical and Public Health Institute (Swiss TPH). As previously described, cercariae are collected from infected Biomphalaria glabrata snails and then mechanically transformed into NTS. 8 After HBSS (Gibco, Waltham MA, USA) washing to get rid of the detached tails, the NTS were kept overnight (min. 12 h, max. 24 h) in culture medium at 37 °C and 5 % CO2 to complete their transformation process, before the drug sensitivity assay was started. The drug assays were performed in the same culture medium consisting of medium M199 (Gibco, Waltham MA, USA) supplemented with 5 % v/v inactivated fetal calf serum (iFCS; Bioconcept AG, Allschwil, Switzerland), 1% antibiotics mixture developed by Mäser et al., 9 and 1 % penicillin 10,000 U/mL, and streptomycin 10 mg/mL solution (Sigma-Aldrich, Buchs, Switzerland). The assay was performed in a 96-well plate, with 30−40 NTS per well in a final volume of 250 μL. NTS incubated in culture medium containing 0.5 % DMSO but no drug served as negative controls.
Microscopic evaluation was performed after 24, 48 and 72 h of incubation of the parasites at 37 °C and 5 % CO 2. Their overall viability was scored from 0 (death) to 3 (full viability) by a phenotypic screening method based on their motility, morphology, […]
and granularity. […]

[2] = Stability in DMSO-d6 monitored by 1H NMR; type: physicochemical; settings: room temperature, 0, 6, 24, 30 and 48 h
Experimental: Stability is a key factor that needs to be investigated in medicinal chemistry, particularly with metal complexes.^[ [44] ^] We randomly chose four niridazole derivatives that we dissolved in DMSO‐d 6 (A3, B1, C2, and D1). We then monitored by ^1H NMR spectroscopy any change in the spectra after 0, 6, 24, 30, and 48 h at room temperature. No shifted peaks or new peaks were found for all the tested compounds over 2 days, showing that they are stable in DMSO‐d 6. The NMR spectra of these studies can be found in the Supporting Information (Figure S32–S35).
Figure S31 DEPT spectrum of C2
1H NMR spectra for stability
Preparation of the control samples for 1H NMR analysis: Compounds B1, D1, A3 and
C2 were dissolved in DMSO- d6. Compound A2 was dissolved in DMSO- d6 with D2O
(4:1, v/v). NMR spectra were recorded in deuterated solvents on Bruker Avance-400
in the room temperature for 0, 6, 24, 30 and 48 hours or 0, 3, 6 and 24 hours. […]

[3] = 24 h drug exposure, read-out: EC50 on adult S. mansoni, 24 h
[4] = 48 h drug exposure, read-out: EC50 on adult S. mansoni, 48 h
[5] = 72 h drug exposure, read-out: EC50 on adult S. mansoni, 72 h
[6] = Schistosoma mansoni, 72 h, 72 h drug exposure, read-out: EC50 on adult S. mansoni, 72 h

| SMILES | EC50 (juvenile S. mansoni) [µM] | mean drug effect at 10 µM on adult S. mansoni, 24 h (adult S. mansoni; 24 h) [%] | mean drug effect at 10 µM on adult S. mansoni, 48 h (adult S. mansoni; 48 h) [%] | EC50 (adult S. mansoni; [3]) [µM] | EC50 (adult S. mansoni; [4]) [µM] | EC50 (adult S. mansoni; [5]) [µM] | Fold activity of niridazole (adult S. mansoni) | EC50 [1] [µM] | drug effect at 50 µM on adult S. mansoni (adult S. mansoni) | EC50 (adult S. mansoni; [6]) [µM] | EC50 ([1]; Schistosoma mansoni) [µM] | drug effect at 50 µM on S. mansoni NTS [1] | stability in DMSO-d6 (1H NMR) [2] | mean drug effect at 10 µM on adult S. mansoni, 72 h (adult S. mansoni; 72 h) [%] | EC50 (juvenile S. mansoni; Schistosoma mansoni) [µM] | EC50 (adult S. mansoni; Schistosoma mansoni, 24 h, 24 h drug exposure, read-out: EC50 on adult S. mansoni, 24 h) [µM] | EC50 (adult S. mansoni; Schistosoma mansoni, 48 h, 48 h drug exposure, read-out: EC50 on adult S. mansoni, 48 h) [µM] |
| --- | --- | --- | --- | --- | --- | --- | --- | --- | --- | --- | --- | --- | --- | --- | --- | --- | --- |
| C=CC([c-]1cccc1)N1CCN(c2ncc([N+](=O)[O-])s2)C1=O.[Fe+2].c1cc[cH-]c1 (racemic) [Compound A5] | 12.2 | 36.19 | 57.59 | > 50 | 5.3 | 1.5 | 3.8 | > 50 |  |  |  |  |  |  |  |  |  |
| Nc1ncc([N+](=O)[O-])s1 [Compound 2] |  |  |  |  |  |  |  |  | No drug effect | > 50 | > 50 | No drug effect |  |  |  |  |  |
| O=C1N(C[c-]2cccc2)CCN1c1ncc([N+](=O)[O-])s1.[Fe+2].c1cc[cH-]c1 [Compound A3] | 5.7 | 30.75 | 44.28 | 50.5 | 9.7 | 3.5 | 1.6 | > 50 | less active than niridazole |  |  |  | stable | 66.09 |  |  |  |
| O=C1N(CCCCCC[c-]2cccc2)CCN1c1ncc([N+](=O)[O-])s1.[Fe+2].c1cc[cH-]c1 [Compound A4] |  |  |  |  |  | > 50 |  | > 50 | No drug effect |  |  | No drug effect |  |  |  |  |  |
| O=C(Nc1ncc([N+](=O)[O-])s1)[c-]1cccc1.[Ru+2].c1cc[cH-]c1 [Compound B1] | > 50 | 45.53 | 44.35 |  |  | 6.9 |  | > 50 | less active than niridazole |  |  |  | stable | 57.20 |  |  |  |
| O=C1N(C[c-]2cccc2)CCN1c1ncc([N+](=O)[O-])s1.[Ru+2].c1cc[cH-]c1 [Compound B2] | 8 | 31.28 | 44.99 | 38.1 |  | 3.2 | 1.8 | > 50 | less active than niridazole |  |  |  |  | 65.57 |  |  |  |
| O=C1N(Cc2ccccc2)CCN1c1ncc([N+](=O)[O-])s1 [Compound C2] |  |  |  |  |  |  |  |  | No drug effect | > 50 | > 50 | No drug effect | stable |  |  |  |  |
| O=C(Nc1ncc([N+](=O)[O-])s1)C12CC3CC(CC(C3)C1)C2 [Compound D1] |  | 55.18 | 66.75 | 9.8 |  |  | 1.5 |  |  | 3.7 | 7.9 |  | stable | 65.76 | 29.2 | < 10 | 4.2 |
